Results as given in patent US20190241569A1, “3-(ARYL OR HETEROARYL) METHYLENEINDOLIN-2-ONE DERIVATIVES AS INHIBITORS OF CANCER STEM CELL PATHWAY KINASES FOR THE TREATMENT OF CANCER” (Boston Biomedical, Inc., priority 2013, published 2019).

What was measured:
Assay type in all cases: cell-based
ACHN = assay: Bulk cancer cells, Cell Titer-Glo 72 hours (Test Example 2); details: Homo sapiens, ACHN, 72 h
Method: (§1) Tubes of 3× drug (60 uM in 500 uL complete media) were prepared from 5 mM stock solutions in DMSO. […] To treat cells, 50 uL of drug from the dilution plate was removed and added to the cell plates. […] Cells were harvested 72 hours after drug addition using Cell Titer-Glo (Promega) and luminescence measured on a plate reader.

A549 = assay: as above; details: Homo sapiens
Method: as §1

FaDu = assay: as above; details: Homo sapiens
Method: as §1

FaDu CSC = assay: Cancer stem cells, Cell Titer-Glo 72 hours (Test Example 3); details: Homo sapiens, FaDu, 72 h

IC50 (ACHN) [µM]	IC50 (A549) [µM]	IC50 (FaDu) [µM]	IC50 (FaDu CSC) [µM]	Compound
12.8	20.8			Cc1cc(C)c(/C=C2\C(=O)Nc3ccc(-c4cncnc4)cc32)[nH]1 [Example 212]
	18	5.31		CCN(CC)CCN1CCCc2[nH]c(/C=C3\C(=O)Nc4ccc(-c5csc(-c6ccccc6)n5)cc43)c(C)c2C1=O [Example 176]
	29.2	26.8		Cc1cc(C)c(/C=C2\C(=O)Nc3ccc(-c4ccc(C=O)cc4)cc32)[nH]1 [Example 262]
	8.73	25.2		O=C1Nc2ccc(-c3csc(-c4ccncc4)n3)cc2/C1=C/c1ccc(N2CCNCC2)cc1 [Example 170]
	48.9	2.15	0.23	CCN(CC)CCNC(=O)c1c(C)[nH]c(/C=C2\C(=O)Nc3ccc(-c4nnc(-c5ccccc5)s4)cc32)c1C [Example 52]
	5.79	2.59		O=C1Nc2ccc(-c3csc(-c4ccccc4)n3)cc2/C1=C/c1ccc(N2CCNCC2)cc1 [Example 171]
5.31		7.87	6.49	Cc1cc(C)c(/C=C2\C(=O)Nc3ccc(-c4csc(-c5ccccc5)n4)cc32)[nH]1 [Example 138]
	18.4	23.5		Cc1cc(C)c(/C=C2\C(=O)Nc3ccc(-c4nccc5ccccc45)cc32)[nH]1 [Example 219]
21.8		22.4		Cc1cc(C)c(/C=C2\C(=O)Nc3ccc(-c4ccc(C(=O)c5ccccc5)cc4)cc32)[nH]1 [Example 260]
	16	1.89	1.3	CCN(CC)CCNC(=O)c1c(C)[nH]c(/C=C2\C(=O)Nc3ccc(C4CCN(c5ccccc5)CC4)cc32)c1C [Example 42]
7.16		6.58	3	CCN(CC)CCNC(=O)c1c(C)[nH]c(/C=C2\C(=O)Nc3ccc(-n4cc(-c5ccccc5)nn4)cc32)c1C [Example 49]
1.16	16.3	21.8		COC(=O)c1c(C)[nH]c(/C=C2\C(=O)Nc3ccc(-c4csc(-c5ccccc5)n4)cc32)c1C [Example 141]
	0.07			COc1ccc(-c2ccc3c(c2)/C(=C/c2[nH]c(C)cc2C)C(=O)N3)nc1 [Example 227]
3.31	3.64	3.1	6.15	CCN(CC)CCNC(=O)c1ccc(/C=C2\C(=O)Nc3ccc(-c4csc(-c5ccccc5)n4)cc32)[nH]c1=O [Example 121]
4.8	29.6	3.32	1	CCN(CC)CCNC(=O)c1c(C)[nH]c(/C=C2\C(=O)Nc3ccc(C4CCN(C5CCN(C(C)=O)CC5)CC4)cc32)c1C [Example 45]
10.6	7.89	25.8	0.09	Cc1cc(C)c(/C=C2\C(=O)Nc3ccc(-c4cnc5ccccc5n4)cc32)[nH]1 [Example 217]
24.9			4.49	O=C1Nc2ccc(-c3csc(-c4ccccc4)n3)cc2/C1=C/c1[nH]c(C(=O)O)c2c1CCCC2 [Example 163]
20.6		19.4		Cc1cc(C)c(/C=C2\C(=O)Nc3cc(-c4cnc5ccccn45)ccc32)[nH]1 [Example 247]
14.7	16.1	26.8		Cc1cc(C)c(/C=C2\C(=O)Nc3ccc(-c4nc5ccccc5s4)cc32)[nH]1 [Example 235]
4.73	4.88	6.74	2.9	CCN(CC)CCNC(=O)c1c(C)[nH]c(/C=C2\C(=O)Nc3ccc(-c4cn(-c5ccccc5)nn4)cc32)c1C [Example 48]
24.8		19.8		COc1ccc(-c2ccc3c(c2)/C(=C/c2[nH]c(C)cc2C)C(=O)N3)c(C)c1 [Example 263]
12.2		9.73	41.5	CCN(CC)CCNC(=O)c1c(C)[nH]c(/C=C2\C(=O)Nc3ccc(-c4cnc(-c5ccccc5)o4)cc32)c1C [Example 17]
